Source: paper PMC9851200, “Multiparameter phenotypic screening for endogenous TFEB and TFE3 translocation identifies novel chemical series modulating lysosome function” (Autophagy, 2022)
Where two headings read alike, the source gives them in different places.

How the values were obtained:
[1] = target: T1, TGFBR1 (Homo sapiens, UniProt P36897); test: TGFBR1 binding KD (Table S3); details: read-out: TGFBR1 KD
T1 sequence (P36897 34-503): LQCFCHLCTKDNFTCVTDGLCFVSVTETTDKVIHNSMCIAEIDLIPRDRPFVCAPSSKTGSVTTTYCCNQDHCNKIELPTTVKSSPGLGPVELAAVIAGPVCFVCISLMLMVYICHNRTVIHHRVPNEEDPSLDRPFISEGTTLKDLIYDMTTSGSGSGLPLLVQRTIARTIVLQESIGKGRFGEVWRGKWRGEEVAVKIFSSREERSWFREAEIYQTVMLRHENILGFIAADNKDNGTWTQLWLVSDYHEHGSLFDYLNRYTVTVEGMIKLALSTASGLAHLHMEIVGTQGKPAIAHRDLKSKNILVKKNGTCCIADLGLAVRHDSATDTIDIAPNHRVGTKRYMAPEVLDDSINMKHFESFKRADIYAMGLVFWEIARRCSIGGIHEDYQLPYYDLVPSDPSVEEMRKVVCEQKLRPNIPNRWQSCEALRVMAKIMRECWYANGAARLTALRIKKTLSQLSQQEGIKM
From the text: (§1) Supplement KAUP_A_2095834_SM5251.zip/Supplementary Tables R7.xlsx, sheet "Table S3 - Analogues"

[2] = test system: endogenous TFE3; test: TFE3 nuclear translocation, immunocytochemistry high-content imaging; type: cell-based; details: for EC50 / Best-Fit Values Span: 24 h, SH-SY5Y; for EC50: read-out: Best-Fit Values EC50 (converted); for Summary: activity in TFE3 assays compared with original NK-140, OT activity; for Best-Fit Values Span: TFE3 assay concentration response
[3] = target: T2, PRKD1 (Homo sapiens, UniProt Q15139); test: PRKD1 binding KD (Table S3); details: relation sign
T2 sequence (Q15139 1-912): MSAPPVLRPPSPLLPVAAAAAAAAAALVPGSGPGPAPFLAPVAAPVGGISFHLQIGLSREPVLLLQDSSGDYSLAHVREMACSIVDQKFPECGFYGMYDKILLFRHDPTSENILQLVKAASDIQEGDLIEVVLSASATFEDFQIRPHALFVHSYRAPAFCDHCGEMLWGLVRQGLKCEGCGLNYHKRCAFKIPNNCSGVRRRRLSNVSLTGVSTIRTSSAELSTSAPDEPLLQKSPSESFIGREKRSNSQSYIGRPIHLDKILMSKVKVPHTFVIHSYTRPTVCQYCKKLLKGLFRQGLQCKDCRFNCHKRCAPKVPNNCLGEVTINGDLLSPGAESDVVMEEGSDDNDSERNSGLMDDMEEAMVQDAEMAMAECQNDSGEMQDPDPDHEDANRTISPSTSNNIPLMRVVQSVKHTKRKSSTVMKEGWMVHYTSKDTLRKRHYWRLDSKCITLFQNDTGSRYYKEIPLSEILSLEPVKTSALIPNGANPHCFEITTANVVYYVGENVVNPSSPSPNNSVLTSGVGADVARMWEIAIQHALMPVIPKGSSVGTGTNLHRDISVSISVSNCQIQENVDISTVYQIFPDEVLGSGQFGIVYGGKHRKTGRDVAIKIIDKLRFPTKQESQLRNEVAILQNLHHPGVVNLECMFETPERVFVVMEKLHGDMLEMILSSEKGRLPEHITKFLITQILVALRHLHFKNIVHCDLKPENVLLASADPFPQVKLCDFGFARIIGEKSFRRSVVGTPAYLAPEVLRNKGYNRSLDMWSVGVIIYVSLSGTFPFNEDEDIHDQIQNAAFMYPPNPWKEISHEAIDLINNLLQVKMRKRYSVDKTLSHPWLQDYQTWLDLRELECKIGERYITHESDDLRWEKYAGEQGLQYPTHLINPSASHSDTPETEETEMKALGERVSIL
From the text: as §1

[4] = test system: SH-SY5Y cells
Method: Total cell lysis with 5 µL 5% Triton-X 100 (Sigma-Aldrich, T8787) is used as a positive control for the assay and toxicity is expressed as a percentage of luminescence under DMSO conditions.

[5] = target: T3, PRKD2 (Homo sapiens, UniProt Q9BZL6); details: read-out: IC50 PRKD2; cited from earlier work
T3 sequence (Q9BZL6 1-878): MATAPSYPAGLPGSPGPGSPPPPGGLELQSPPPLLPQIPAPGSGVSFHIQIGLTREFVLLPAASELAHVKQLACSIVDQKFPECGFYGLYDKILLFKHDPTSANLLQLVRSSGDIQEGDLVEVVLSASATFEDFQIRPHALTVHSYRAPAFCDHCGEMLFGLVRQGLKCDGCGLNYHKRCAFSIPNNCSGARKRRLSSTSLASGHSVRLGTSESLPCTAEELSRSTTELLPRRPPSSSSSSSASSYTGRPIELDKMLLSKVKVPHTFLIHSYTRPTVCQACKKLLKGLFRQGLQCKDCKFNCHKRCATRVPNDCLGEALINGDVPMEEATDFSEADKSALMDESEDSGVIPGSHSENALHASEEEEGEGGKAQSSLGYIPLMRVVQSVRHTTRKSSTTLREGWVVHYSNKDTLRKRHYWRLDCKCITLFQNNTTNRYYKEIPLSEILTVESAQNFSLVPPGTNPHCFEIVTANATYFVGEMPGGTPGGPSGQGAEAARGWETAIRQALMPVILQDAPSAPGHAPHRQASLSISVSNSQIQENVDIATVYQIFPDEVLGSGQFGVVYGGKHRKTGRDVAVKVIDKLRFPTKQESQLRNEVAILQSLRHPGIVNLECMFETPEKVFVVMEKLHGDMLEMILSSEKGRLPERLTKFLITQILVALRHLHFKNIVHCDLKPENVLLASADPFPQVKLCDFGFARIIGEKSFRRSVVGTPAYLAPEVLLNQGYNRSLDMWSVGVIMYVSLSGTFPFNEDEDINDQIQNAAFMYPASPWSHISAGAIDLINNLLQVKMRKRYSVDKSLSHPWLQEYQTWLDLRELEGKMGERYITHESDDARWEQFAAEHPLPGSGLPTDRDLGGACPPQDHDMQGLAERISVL

[6] = target: T2, PRKD1; details: cited from earlier work
[7] = target: T2, PRKD1; details: cited from earlier work; remark: listed apart in the source
[8] = target: T4, JAK1(JH2) (Homo sapiens, UniProt P23458); details: cited from earlier work
T4 construct: JAK1(JH2)

[9] = target: T5, ACVR1B (Homo sapiens, UniProt P36896); details: cited from earlier work
T5 sequence (P36896 24-505): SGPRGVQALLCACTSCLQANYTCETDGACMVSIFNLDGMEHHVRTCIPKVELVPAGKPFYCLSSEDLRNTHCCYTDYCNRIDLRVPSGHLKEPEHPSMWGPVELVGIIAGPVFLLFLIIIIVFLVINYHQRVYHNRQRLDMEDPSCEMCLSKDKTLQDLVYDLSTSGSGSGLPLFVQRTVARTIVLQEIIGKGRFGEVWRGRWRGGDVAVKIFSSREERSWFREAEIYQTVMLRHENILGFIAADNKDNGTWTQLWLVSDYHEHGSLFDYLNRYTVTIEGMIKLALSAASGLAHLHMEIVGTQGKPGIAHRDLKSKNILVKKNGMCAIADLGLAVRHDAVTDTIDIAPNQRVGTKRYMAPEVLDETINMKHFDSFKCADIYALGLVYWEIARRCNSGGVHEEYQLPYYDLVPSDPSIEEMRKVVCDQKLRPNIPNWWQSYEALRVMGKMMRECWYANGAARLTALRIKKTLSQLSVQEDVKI

[10] = target: CDC42BPB/MRCKB (Homo sapiens, UniProt Q9Y5S2); details: cited from earlier work
[11] = target: T3, PRKD2; details: cited from earlier work
[12] = target: CDC42BPG/DMPK2 (Homo sapiens, UniProt Q6DT37); details: cited from earlier work
[13] = target: CIT (Homo sapiens, UniProt O14578); details: cited from earlier work
[14] = target: MTOR (Homo sapiens, UniProt P42345); details: cited from earlier work
[15] = target: BMPR1B (Homo sapiens, UniProt O00238); details: cited from earlier work
[16] = target: CSNK1E (Homo sapiens, UniProt P49674); details: cited from earlier work
[17] = target: CSNK1D (Homo sapiens, UniProt P48730); details: cited from earlier work
[18] = target: TGFBR2 (Homo sapiens, UniProt P37173); details: cited from earlier work
[19] = target: T6, PRKD3 (Homo sapiens, UniProt O94806); details: cited from earlier work
T6 sequence (O94806 1-890): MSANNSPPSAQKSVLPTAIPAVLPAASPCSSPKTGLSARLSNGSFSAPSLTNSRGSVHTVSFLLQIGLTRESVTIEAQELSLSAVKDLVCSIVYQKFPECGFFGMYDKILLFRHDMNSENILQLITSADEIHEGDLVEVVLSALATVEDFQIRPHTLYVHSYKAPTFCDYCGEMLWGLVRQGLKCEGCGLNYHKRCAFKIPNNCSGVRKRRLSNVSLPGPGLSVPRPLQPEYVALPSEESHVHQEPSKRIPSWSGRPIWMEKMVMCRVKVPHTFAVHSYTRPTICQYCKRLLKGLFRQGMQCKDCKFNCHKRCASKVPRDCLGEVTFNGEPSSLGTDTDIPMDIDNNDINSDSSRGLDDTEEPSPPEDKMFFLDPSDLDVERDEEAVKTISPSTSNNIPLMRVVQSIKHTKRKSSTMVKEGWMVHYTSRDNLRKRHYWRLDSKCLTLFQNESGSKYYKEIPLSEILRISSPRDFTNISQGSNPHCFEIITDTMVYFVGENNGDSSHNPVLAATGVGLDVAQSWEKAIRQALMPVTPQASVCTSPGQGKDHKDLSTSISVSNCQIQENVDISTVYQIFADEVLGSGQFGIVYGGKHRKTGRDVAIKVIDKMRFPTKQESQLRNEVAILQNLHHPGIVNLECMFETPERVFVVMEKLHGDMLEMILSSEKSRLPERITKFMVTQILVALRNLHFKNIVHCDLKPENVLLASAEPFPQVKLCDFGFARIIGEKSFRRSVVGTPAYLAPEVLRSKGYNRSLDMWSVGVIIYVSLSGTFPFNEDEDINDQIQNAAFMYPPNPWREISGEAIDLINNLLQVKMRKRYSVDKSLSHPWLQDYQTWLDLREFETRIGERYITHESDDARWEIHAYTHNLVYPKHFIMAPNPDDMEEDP

[20] = target: PIKFYVE (Homo sapiens, UniProt Q9Y2I7); details: cited from earlier work
[21] = TFE3 assay, second EC50 of biphasic/bell-shaped fit or OT (off-target) activity, unit inferred

CIT, sequence (O14578 whole entry): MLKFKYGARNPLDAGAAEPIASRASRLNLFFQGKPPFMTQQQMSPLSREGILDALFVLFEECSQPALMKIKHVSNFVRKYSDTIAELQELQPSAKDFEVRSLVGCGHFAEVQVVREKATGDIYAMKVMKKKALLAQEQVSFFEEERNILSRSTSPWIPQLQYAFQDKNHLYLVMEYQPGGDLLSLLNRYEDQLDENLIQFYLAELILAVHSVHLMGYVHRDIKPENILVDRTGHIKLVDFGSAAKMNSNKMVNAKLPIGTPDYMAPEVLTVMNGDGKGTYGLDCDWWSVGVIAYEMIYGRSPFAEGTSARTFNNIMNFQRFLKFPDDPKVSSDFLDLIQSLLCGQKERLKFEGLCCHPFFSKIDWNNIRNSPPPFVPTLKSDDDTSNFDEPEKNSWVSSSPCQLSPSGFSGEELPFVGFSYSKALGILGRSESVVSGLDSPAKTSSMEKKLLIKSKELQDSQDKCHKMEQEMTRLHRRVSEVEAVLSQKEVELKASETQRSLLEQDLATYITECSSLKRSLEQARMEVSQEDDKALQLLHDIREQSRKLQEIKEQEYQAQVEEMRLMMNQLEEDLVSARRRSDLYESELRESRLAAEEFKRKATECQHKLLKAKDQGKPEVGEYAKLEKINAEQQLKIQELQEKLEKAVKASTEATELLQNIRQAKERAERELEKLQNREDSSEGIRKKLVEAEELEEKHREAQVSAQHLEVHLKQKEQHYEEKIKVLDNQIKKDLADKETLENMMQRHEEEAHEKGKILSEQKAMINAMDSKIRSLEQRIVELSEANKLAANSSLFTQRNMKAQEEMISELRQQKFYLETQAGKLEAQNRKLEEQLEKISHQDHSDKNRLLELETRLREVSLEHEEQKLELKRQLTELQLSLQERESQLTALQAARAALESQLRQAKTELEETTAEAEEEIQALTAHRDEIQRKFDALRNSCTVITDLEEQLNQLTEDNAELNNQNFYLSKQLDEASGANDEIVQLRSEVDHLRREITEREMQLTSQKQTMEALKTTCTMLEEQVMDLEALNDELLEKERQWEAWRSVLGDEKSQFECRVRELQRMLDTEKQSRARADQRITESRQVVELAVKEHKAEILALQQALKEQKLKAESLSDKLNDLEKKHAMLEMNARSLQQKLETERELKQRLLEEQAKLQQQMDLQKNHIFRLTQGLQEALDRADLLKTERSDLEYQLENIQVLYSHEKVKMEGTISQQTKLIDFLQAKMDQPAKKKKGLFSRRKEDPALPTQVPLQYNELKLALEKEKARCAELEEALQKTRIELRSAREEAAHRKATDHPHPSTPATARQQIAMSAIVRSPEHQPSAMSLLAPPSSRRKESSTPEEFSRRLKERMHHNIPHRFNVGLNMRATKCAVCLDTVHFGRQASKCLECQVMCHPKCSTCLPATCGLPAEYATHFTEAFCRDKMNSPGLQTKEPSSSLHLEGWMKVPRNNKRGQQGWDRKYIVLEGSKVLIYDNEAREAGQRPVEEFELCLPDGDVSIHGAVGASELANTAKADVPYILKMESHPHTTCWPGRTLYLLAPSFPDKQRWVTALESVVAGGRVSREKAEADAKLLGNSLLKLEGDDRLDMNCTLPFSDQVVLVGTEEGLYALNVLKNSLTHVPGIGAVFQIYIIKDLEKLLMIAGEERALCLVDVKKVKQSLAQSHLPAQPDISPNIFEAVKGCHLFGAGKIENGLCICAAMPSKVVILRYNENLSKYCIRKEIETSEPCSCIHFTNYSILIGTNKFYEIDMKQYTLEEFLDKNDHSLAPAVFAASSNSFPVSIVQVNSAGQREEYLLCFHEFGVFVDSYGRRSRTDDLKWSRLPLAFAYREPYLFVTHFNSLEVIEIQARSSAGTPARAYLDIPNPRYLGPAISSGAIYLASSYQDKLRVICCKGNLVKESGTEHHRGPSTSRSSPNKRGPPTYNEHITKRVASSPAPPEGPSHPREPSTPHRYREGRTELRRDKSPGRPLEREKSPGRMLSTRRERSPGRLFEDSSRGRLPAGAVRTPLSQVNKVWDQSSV
CDC42BPG/DMPK2, sequence (Q6DT37 whole entry): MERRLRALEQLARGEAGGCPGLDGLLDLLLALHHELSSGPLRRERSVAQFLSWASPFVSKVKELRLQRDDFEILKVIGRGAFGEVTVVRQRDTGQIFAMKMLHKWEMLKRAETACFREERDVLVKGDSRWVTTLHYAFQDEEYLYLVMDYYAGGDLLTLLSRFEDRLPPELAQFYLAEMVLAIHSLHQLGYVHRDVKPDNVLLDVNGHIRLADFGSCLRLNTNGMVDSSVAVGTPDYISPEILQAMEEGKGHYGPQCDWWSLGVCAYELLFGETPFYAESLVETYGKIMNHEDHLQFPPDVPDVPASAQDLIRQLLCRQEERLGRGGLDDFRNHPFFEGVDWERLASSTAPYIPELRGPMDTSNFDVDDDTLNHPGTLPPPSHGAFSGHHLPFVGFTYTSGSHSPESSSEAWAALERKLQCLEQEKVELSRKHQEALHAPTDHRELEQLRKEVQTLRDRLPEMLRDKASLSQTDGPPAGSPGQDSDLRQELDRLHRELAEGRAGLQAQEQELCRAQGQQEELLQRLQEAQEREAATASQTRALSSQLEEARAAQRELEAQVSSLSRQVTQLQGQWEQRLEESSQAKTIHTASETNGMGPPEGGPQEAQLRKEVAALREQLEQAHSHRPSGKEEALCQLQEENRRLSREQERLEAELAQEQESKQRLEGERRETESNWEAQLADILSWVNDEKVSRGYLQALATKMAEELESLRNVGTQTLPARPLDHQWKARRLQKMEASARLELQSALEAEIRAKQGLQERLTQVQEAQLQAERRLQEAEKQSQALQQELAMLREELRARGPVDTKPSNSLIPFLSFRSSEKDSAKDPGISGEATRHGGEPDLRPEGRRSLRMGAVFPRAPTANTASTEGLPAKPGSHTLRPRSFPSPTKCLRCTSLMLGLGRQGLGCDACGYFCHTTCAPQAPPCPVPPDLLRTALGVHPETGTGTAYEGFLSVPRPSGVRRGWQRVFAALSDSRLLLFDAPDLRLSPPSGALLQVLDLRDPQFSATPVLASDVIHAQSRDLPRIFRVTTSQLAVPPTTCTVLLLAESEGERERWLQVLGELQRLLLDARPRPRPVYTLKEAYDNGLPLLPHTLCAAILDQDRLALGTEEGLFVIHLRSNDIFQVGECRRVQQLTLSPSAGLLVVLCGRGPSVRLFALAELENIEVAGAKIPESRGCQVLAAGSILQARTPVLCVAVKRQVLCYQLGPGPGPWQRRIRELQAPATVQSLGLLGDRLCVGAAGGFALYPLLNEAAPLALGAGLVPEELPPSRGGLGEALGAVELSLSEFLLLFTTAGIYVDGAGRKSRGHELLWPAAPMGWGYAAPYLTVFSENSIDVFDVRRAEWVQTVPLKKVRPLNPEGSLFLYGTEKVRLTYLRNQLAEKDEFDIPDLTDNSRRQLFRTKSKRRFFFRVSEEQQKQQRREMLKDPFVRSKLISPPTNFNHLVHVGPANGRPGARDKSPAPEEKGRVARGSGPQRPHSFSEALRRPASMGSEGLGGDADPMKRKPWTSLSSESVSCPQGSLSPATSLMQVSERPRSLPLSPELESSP
TGFBR2, sequence (P37173 23-567): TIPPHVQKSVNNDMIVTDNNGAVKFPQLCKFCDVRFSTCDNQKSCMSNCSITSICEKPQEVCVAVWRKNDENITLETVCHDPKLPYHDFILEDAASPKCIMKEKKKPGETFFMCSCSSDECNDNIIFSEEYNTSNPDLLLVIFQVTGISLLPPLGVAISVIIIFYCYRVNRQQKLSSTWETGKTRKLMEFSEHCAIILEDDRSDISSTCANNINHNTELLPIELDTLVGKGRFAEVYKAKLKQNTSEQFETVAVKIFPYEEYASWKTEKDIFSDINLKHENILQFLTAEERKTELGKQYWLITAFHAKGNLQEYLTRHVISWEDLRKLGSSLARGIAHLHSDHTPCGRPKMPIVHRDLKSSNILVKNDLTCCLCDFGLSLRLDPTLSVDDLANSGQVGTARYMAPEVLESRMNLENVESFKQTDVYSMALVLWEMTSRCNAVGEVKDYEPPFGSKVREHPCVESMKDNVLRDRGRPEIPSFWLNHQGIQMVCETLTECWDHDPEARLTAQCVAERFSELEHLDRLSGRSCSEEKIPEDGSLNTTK
CSNK1E, sequence (P49674 whole entry): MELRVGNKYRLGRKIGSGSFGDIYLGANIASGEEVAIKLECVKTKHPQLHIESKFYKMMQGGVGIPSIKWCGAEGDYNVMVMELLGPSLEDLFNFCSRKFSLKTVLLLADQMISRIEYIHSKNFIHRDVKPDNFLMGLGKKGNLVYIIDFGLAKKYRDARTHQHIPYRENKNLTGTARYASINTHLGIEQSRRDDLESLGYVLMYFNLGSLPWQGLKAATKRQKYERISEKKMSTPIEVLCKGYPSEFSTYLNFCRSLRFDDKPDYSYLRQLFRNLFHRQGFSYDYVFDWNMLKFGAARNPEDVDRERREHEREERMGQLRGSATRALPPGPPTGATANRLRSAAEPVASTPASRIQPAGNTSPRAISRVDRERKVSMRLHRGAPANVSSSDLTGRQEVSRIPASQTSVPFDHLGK
CSNK1D, sequence (P48730 whole entry): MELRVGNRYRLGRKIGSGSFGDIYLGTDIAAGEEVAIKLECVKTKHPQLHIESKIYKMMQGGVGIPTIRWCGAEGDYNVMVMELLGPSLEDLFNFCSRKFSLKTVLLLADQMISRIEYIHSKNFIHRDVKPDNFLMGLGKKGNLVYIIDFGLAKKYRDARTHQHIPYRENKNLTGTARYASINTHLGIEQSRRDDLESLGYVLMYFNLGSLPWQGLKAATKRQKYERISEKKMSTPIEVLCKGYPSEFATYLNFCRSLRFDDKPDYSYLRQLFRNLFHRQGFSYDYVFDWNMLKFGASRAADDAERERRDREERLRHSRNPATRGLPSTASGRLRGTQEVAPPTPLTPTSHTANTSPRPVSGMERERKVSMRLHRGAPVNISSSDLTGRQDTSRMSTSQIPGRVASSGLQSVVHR

Cc1cccc(-c2nc(Nc3ccc4nnn(C)c4c3)c3ccccc3n2)n1 [NK222]
Kd [1]: > 10000 nM
EC50 [2, 21]: 3.12 µM
EC50 ([2]; TFE3 assay, µM): 0.22 µM
Summary [2]: Stronger, Some OT activity

COc1ccc(Nc2nc(-c3cccc(C)n3)nc3ccccc23)cc1 [NK170]
EC50 ([2]; Homo sapiens): 0.85 µM
EC50 ([2]; Homo sapiens, TFE3 assay, µM): 0.83 µM
Summary [2]: Weaker, Strong OT activity
Kd [3]: 780 nM

Cc1cccc(-c2nc(Nc3ccc4nc(C)sc4c3)c3ccccc3n2)n1 [NK165]
Kd [1]: > 10000 nM
EC50 [2, 21]: 3.8 µM
EC50 ([2]; TFE3 assay, µM): 0.58 µM
Summary [2]: Stronger, Some OT activity

Cc1cccc(-c2nc(Nc3ccc4nn(C)nc4c3)c3ccccc3n2)n1 [NK223]
Kd [1]: > 10000 nM
Best-Fit Values Span [2]: 88.41
EC50 [2, 21]: 1.34 µM
Summary [2]: Only OT activity

CC[C@@H](N)CNc1ccnc(-c2cc(-c3cnn(C)c3)ccc2O)n1.Cl.Cl [CRT0066101, reference compound]
Cellular toxicity (AK release and nuclear count, in words) [4]: pronounced cellular toxicity
Concentrations toxic to cells (reduction in nuclear count and increase in AK signal) [4]: above 1 µM
IC50 [5]: 2.5 nM
IC50 [6]: 1 nM

Cc1cccc(-c2nc(Nc3ccc4[nH]ncc4c3)c3ccccc3n2)n1 [GW857175]
KINOMEscan binding PRKD1 [7]: 99.8%
KINOMEscan binding JAK1(JH2) [8]: 83%
KINOMEscan binding ACVR1B [9]: 100%
KINOMEscan binding CDC42BPB/MRCKB [10]: 72%
KINOMEscan binding PRKD2 [11]: 99.9%
KINOMEscan binding CDC42BPG/DMPK2 [12]: 72%
KINOMEscan binding CIT [13]: 9%
KINOMEscan binding MTOR [14]: 0%
KINOMEscan binding BMPR1B [15]: 34%
KINOMEscan binding CSNK1E [16]: 28%
KINOMEscan binding CSNK1D [17]: 28%
KINOMEscan binding TGFBR2 [18]: 0%
KINOMEscan binding PRKD3 [19]: 98.1%
KINOMEscan binding PIKFYVE [20]: 85%

Cc1cccc(-c2nc(Oc3ccc4scnc4c3)c3ccccc3n2)n1 [NK220]
Kd [1]: > 10000 nM
Best-Fit Values Span [2]: 0.80
Summary [2]: Inactive

Cc1cccc(-c2nc(Nc3ccc4ccsc4c3)c3ccccc3n2)n1 [NK219]
EC50 ([2]; Homo sapiens): 2.51 µM
EC50 ([2]; Homo sapiens, TFE3 assay, µM): 2.5 µM
Best-Fit Values Span [2]: 44.67
Summary [2]: Weaker, Strong OT activity
Kd [3]: 650 nM
